Assays:
[1] = cited from earlier work
[2] = Selection of mixed solvent (Table 4); format: physicochemical
[3] = in vivo, cited from earlier work

dissolution when amount of dimethyl sulfoxide is reduced ([2]; 25 g amoxicillin, less than 100 ml dimethyl sulfoxide): 不能完全溶解
volume of dimethyl sulfoxide required to dissolve 25 g amoxicillin as stable solution ([2]; from results of 2.2 and 2.3): 100 mL
SMILES: CC1(C)S[C@@H]2[C@H](NC(=O)[C@H](N)c3ccc(O)cc3)C(=O)N2[C@H]1C(=O)O [阿莫西林]
stability under acidic conditions [1]: 稳定
gastrointestinal absorption rate ([3]; po): 90%
half-life [3]: ~1.02 h

Reference: CN105663037A, “一种阿莫西林溶液剂及其制备方法和用途” (Chengdu Qiankun Veterinary Pharmaceutical Co Ltd, priority 2016, dated 2016)
